BindingDB's records for doi:10.1021/jm00172a010 (Centre De Recherches De Vitry, 1990)

Legend:
[1] = target: T1, Polyunsaturated fatty acid 5-lipoxygenase (Rattus norvegicus, UniProt P12527); experiment: In vitro inhibitory activity against 5-Lipoxygenase in rat by Peritoneal 5-lipoxygenase assay
T1 sequence (P12527 whole entry): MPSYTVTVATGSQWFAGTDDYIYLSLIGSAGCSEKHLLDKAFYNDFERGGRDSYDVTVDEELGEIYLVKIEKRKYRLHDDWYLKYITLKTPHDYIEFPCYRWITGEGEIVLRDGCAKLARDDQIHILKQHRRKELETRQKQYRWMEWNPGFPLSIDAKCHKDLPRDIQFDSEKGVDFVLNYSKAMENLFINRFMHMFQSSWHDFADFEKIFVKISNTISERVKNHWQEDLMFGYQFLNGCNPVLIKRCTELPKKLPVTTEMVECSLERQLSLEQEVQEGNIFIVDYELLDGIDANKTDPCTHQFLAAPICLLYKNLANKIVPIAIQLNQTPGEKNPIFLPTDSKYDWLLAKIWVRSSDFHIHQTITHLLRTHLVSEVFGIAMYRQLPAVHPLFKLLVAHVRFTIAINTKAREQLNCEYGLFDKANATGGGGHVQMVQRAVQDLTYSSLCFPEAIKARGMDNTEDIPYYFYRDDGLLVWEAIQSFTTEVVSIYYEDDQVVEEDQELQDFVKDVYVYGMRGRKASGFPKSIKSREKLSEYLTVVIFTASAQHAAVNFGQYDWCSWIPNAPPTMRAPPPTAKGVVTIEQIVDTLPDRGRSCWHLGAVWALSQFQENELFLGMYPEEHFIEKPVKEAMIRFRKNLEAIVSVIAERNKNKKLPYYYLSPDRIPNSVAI

[2] = target: T1, Polyunsaturated fatty acid 5-lipoxygenase; experiment: In vitro inhibition of 5-lipoxygenase in rat (peritoneal assay)

| IC50 [1] | IC50 [2] | SMILES |
| --- | --- | --- |
|  | 3 µM | CCOC(=O)C(=CCC(=O)C(=O)c1ccccc1)Sc1ccccc1 |
